Measured values from patent US20100144700A1, “HETEROCYCLIC-CARBONYL-DIAZABICYCLOALKANES AS MODULATORS OF THE NEURONAL NICOTINIC ACETYLCHOLINE ALPHA 4 BETA 2, SUBTYPE RECEPTOR FOR THE TREATMENT OF CNS RELATED DISORDERS” (TARGACEPT, INC., priority 2007, published 2010).
Read-outs that look alike come from different tables or passages of the source.

Legend:
Human α4β2 = Human α4β2 (Homo sapiens, UniProt P17787+P43681); assay: Binding at human α4β2 subtype (Table 1)
α7 nAChR Subtype = molecular target: T1, α7 nAChR Subtype (Rattus norvegicus, UniProt Q05941); assay: Radioligand binding ([3H]MLA) at α7 nAChR subtype, rat hippocampus membranes; HTS at 5 μM; settings: for inhibition at 5 µM: 5 μM compound, 5 nM 3H-MLA, read-out: α7 high throughput screening (HTS) binding
T1 construct: The hippocampus was removed and placed in 10 volumes (weight:volume) of ice-cold preparative buffer; from tissue; host or cells: rat hippocampus membranes
T1 sequence (Q05941 23-502): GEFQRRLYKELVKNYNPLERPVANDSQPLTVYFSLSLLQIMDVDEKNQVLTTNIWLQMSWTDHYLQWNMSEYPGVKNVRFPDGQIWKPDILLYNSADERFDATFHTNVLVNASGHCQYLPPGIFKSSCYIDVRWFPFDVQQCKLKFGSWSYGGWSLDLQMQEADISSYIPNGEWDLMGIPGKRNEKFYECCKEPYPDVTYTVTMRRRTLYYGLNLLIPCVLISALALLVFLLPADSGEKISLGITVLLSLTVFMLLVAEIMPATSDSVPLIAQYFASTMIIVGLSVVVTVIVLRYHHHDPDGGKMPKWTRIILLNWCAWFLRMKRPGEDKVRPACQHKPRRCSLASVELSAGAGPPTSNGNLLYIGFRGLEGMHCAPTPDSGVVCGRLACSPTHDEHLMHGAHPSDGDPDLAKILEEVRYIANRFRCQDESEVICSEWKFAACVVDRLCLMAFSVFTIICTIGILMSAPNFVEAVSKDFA
Protocol: Rats (female, Sprague-Dawley), weighing 150-250 g, were maintained on a 12 h light/dark cycle and were allowed free access to water and food supplied by PMI Nutrition International, Inc. Animals were anesthetized with 70% CO2, then decapitated. Brains were removed and placed on an ice-cold platform. The hippocampus was removed and placed in 10 volumes (weight:volume) of ice-cold preparative buffer (137 mM NaCl, 10.7 mM KCl, 5.8 mM KH2PO4, 8 mM Na2HPO4, 20 mM HEPES (free acid), 5 mM iodoacetamide, 1.6 mM EDTA, pH 7.4); PMSF, dissolved in methanol to a final concentration of 100 μM, was added and the tissue suspension was homogenized by Polytron. The homogenate was centrifuged at 18,000×g for 20 min at 4° C. and the resulting pellet was re-suspended in 10 volumes of ice-cold water. After 60 min incubation on ice, a new pellet was collected by centrifugation at 18,000×g for 20 min at 4° C. The final pellet was re-suspended in 10 volumes of buffer and stored at −20° C. On the day of the assay, tissue was thawed, centrifuged at 18,000×g for 20 min, and then re-suspended in ice-cold PBS (Dulbecco's Phosphate Buffered Saline, 138 mM NaCl, 2.67 mM KCl, 1.47 mM KH2PO4, 8.1 mM Na2HPO4, 0.9 mM CaCl2, 0.5 mM MgCl2, Invitrogen/Gibco, pH 7.4) to a final concentration of approximately 2 mg protein/mL. Protein was determined by the method of Lowry et al., J. Biol. Chem. 193: 265 (1951), using bovine serum albumin as the standard.
The binding of [^3H]MLA was measured using a modification of the methods of Davies et al., Neuropharmacol. 38: 679 (1999). [^3H]MLA (Specific Activity=25-35 Ci/mmol) was obtained from Tocris. The binding of [^3H]MLA was determined using a 2 h incubation at 21° C. Incubations were conducted in 48-well micro-titre plates and contained about 200 μg of protein per well in a final incubation volume of 300 μL. The incubation buffer was PBS and the final concentration of [^3H]MLA was 5 nM. The binding reaction was terminated by filtration of the protein containing bound ligand onto glass fiber filters (GF/B, Brandel) using a Brandel Tissue Harvester at room temperature. Filters were soaked in de-ionized water containing 0.33% polyethyleneimine to reduce non-specific binding. Each filter was washed with PBS (3×1 mL) at room temperature. Non-specific binding was determined by inclusion of 50 μM non-radioactive MLA in selected wells.
[…] Each concentration was replicated in triplicate. […] […] Pharmacol. 22: 3099-3108 (1973).

α4β2 nAChR Subtype = molecular target: T2, α4β2 nAChR Subtype (Rattus norvegicus, UniProt P09483+P12390); assay: Radioligand binding ([3H]nicotine) at rat α4β2 nAChR subtype, rat cerebral cortex membranes
T2 construct: The cerebral cortex was removed and placed in 20 volumes (weight:volume) of ice-cold preparative buffer; from tissue; host or cells: rat cerebral cortex membranes
T2 sequence (P09483 31-630): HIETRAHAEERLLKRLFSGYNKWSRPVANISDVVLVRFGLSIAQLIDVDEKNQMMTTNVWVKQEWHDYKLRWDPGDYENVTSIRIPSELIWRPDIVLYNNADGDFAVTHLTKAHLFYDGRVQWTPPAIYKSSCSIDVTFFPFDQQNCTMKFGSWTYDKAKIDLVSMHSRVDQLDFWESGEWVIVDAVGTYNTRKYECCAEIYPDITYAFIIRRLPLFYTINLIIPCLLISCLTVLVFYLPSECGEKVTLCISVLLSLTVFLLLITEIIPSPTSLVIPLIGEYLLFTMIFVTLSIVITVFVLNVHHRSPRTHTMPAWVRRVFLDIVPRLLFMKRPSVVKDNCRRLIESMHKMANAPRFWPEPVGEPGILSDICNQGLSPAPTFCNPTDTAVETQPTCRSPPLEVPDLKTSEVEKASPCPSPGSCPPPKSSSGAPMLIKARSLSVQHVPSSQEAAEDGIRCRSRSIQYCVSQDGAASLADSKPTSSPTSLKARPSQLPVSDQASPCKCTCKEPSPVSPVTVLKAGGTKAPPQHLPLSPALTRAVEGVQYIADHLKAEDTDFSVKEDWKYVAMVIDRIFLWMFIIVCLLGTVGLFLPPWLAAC
T2 sequence (P12390 25-500): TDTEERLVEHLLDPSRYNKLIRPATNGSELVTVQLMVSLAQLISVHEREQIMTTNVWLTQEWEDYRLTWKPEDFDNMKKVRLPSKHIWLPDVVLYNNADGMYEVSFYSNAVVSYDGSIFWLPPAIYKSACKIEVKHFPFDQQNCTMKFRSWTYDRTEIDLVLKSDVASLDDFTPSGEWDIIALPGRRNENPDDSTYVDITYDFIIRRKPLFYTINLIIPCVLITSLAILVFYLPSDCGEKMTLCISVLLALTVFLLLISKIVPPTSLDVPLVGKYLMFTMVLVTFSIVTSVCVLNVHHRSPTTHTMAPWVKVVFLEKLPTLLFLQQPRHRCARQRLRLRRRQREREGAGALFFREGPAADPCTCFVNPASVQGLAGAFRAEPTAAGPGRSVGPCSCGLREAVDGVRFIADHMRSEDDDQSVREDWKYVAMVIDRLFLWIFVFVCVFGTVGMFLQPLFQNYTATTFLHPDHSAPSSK
Protocol: Rats (female, Sprague-Dawley), weighing 150-250 g, were maintained on a 12 h light/dark cycle and were allowed free access to water and food supplied by PMI Nutrition International, Inc. Animals were anesthetized with 70% CO2, then decapitated. Brains were removed and placed on an ice-cold platform. The cerebral cortex was removed and placed in 20 volumes (weight:volume) of ice-cold preparative buffer (137 mM NaCl, 10.7 mM KCl, 5.8 mM KH2PO4, 8 mM Na2HPO4, 20 mM HEPES (free acid), 5 mM iodoacetamide, 1.6 mM EDTA, pH 7.4); PMSF, dissolved in methanol to a final concentration of 100 μM, was added and the suspension was homogenized by Polytron. The homogenate was centrifuged at 18,000×g for 20 min at 4° C. and the resulting pellet was re-suspended in 20 volumes of ice-cold water. After 60 min incubation on ice, a new pellet was collected by centrifugation at 18,000×g for 20 min at 4° C. The final pellet was re-suspended in 10 volumes of buffer and stored at −20° C. On the day of the assay, tissue was thawed, centrifuged at 18,000×g for 20 min, and then re-suspended in ice-cold PBS (Dulbecco's Phosphate Buffered Saline, 138 mM NaCl, 2.67 mM KCl, 1.47 mM KH2PO4, 8.1 mM Na2HPO4, 0.9 mM CaCl2, 0.5 mM MgCl2, Invitrogen/Gibco, pH 7.4) to a final concentration of approximately 4 mg protein/mL. Protein was determined by the method of Lowry et al., J. Biol. Chem. 193: 265 (1951), using bovine serum albumin as the standard.
The binding of [^3H]nicotine was measured using a modification of the methods of Romano et al., Science 210: 647 (1980) and Marks et al., Mol. Pharmacol. 30: 427 (1986). The [^3H]nicotine (Specific Activity=81.5 Ci/mmol) was obtained from NEN Research Products. The binding of [^3H]nicotine was measured using a 3 h incubation at 4° C. Incubations were conducted in 48-well micro-titre plates and contained about 400 μg of protein per well in a final incubation volume of 300 μL. The incubation buffer was PBS and the final concentration of [^3H]nicotine was 5 nM. The binding reaction was terminated by filtration of the protein containing bound ligand onto glass fiber filters (GF/B, Brandel) using a Brandel Tissue Harvester at 4° C. Filters were soaked in de-ionized water containing 0.33% polyethyleneimine to reduce non-specific binding. Each filter was washed with ice-cold buffer (3×1 mL). Non-specific binding was determined by inclusion of 10 μM non-radioactive L-nicotine (Acros Organics) in selected wells.
The inhibition of [^3H]nicotine binding by test compounds was determined by including seven different concentrations of the test compound in selected wells. Each concentration was replicated in triplicate. IC50 values were estimated as the concentration of compound that inhibited 50 percent of specific [^3H]nicotine binding. Inhibition constants (Ki values), reported in nM, were calculated from the IC50 values using the method of Cheng et al., Biochem. Pharmacol. 22: 3099 (1973).

[1] = [3H]nicotine 5 nM, rat cortex, read-out: Rat α4β2 Ki

Chain of Human α4β2 (P43681 29-627 limits assumed): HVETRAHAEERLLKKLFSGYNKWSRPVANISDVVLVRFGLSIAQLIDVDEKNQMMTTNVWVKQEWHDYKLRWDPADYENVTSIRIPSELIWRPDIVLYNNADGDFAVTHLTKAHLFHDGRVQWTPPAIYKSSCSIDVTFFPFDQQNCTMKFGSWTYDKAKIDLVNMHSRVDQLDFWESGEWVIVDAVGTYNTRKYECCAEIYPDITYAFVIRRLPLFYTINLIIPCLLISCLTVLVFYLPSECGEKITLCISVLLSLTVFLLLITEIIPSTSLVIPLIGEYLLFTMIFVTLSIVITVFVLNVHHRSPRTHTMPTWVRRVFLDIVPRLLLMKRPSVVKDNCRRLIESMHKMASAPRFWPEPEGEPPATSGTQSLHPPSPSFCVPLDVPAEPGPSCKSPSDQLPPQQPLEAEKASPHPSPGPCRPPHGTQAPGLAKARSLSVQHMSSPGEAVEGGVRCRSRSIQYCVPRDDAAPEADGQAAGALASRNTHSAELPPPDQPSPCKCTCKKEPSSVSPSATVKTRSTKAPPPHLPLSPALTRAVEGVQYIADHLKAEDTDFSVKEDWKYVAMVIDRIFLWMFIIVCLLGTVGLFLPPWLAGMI
Chain of Human α4β2 (P17787 26-502): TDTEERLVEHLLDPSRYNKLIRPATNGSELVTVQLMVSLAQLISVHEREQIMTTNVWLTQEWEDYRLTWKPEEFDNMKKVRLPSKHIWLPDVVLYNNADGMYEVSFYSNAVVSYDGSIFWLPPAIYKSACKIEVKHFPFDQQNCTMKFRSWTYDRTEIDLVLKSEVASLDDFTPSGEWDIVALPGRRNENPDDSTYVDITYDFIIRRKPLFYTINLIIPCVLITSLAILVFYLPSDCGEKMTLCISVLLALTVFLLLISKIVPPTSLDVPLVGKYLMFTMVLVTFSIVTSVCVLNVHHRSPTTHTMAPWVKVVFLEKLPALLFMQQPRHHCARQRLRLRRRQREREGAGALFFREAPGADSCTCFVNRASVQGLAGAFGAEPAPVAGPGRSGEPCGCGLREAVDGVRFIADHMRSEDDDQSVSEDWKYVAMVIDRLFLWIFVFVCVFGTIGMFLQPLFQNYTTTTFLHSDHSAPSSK

Compound | Ki (Human α4β2; read-out: Human α4β2 Ki) | inhibition at 5 µM (α7 nAChR Subtype) | Ki (α4β2 nAChR Subtype) | Ki (Human α4β2) | Ki (α4β2 nAChR Subtype; [1]) | Ki (α7 nAChR Subtype; [3H]MLA 5 nM, rat hippocampus)
O=C(c1ccco1)N1CC2CNC(C2)C1 (stereo not drawn) | 23.9 nM | ≤ 50% | 19.2 nM | – | – | –
O=C(c1ccncc1)N1CC2CNC(C2)C1 (stereo not drawn) | 29.7 nM | ≤ 50% | – | – | – | –
O=C(c1ccco1)N1CC2CNCC1C2 (stereo not drawn) | 217 nM | ≤ 50% | – | – | – | –
O=C(c1ccc(Br)o1)N1CC2CNC(C2)C1 (stereo not drawn) | 0.8 nM | ≤ 50% | 14.5 nM | – | – | –
Cc1ccoc1C(=O)N1CC2CNC(C2)C1 (stereo not drawn) | 3.4 nM | ≤ 50% | – | – | – | –
O=C(c1cccnc1)N1CC2CNC(C2)C1 (stereo not drawn) | 359 nM | ≤ 50% | – | – | – | –
O=C(c1cc(Br)no1)N1CC2CNC(C2)C1 (stereo not drawn) | 2.8 nM | ≤ 50% | 3.4 nM | – | – | –
COc1cc(C(=O)N2CC3CNC(C3)C2)on1 (stereo not drawn) | 3.7 nM | ≤ 50% | 5 nM | – | – | –
Cc1ccoc1C(=O)N1CC2CNCC1C2 (stereo not drawn) | – | ≤ 50% | – | 95.2 nM | 139 nM | –
O=C(c1ccncc1)N1CC2CNCC1C2 (stereo not drawn) | 132 nM | ≤ 50% | – | – | 317 nM | –
O=C(c1cc(Br)no1)N1CC2CNCC1C2 (stereo not drawn) | – | ≤ 50% | – | 14.3 nM | 172 nM | –
O=C(c1ccco1)N1C[C@@H]2CN[C@@H](C2)C1 | 16.9 nM | – | 40.9 nM | – | – | 1020 nM
O=C(c1ccco1)N1C[C@H]2CN[C@H](C2)C1 | 13.1 nM | ≤ 50% | 10.8 nM | – | – | –
O=C(c1ccc(Br)o1)N1C[C@H]2CN[C@H](C2)C1 | 6.8 nM | ≤ 50% | 14.4 nM | – | – | –
O=C(c1cc(Br)no1)N1C[C@H]2CN[C@H](C2)C1 | 1.8 nM | ≤ 50% | 3.5 nM | – | – | –
Cc1occc1C(=O)N1C[C@H]2CN[C@H](C2)C1 | 10.9 nM | ≤ 50% | 17.3 nM | – | – | –
O=C(c1ccc(Cl)o1)N1C[C@@H]2CN[C@@H](C2)C1 | 27.1 nM | ≤ 50% | 39.6 nM | – | – | –

Compound | Ki (Human α4β2; read-out: Human α4β2 Ki) | inhibition at 5 µM (α7 nAChR Subtype) | Ki (α4β2 nAChR Subtype) | Ki (Human α4β2) | Ki (α4β2 nAChR Subtype; [1]) | Ki (α7 nAChR Subtype; [3H]MLA 5 nM, rat hippocampus)
O=C(c1ccno1)N1C[C@@H]2CN[C@@H](C2)C1 | 34.5 nM | ≤ 50% | 26.8 nM | – | – | –
O=C(c1cnco1)N1C[C@@H]2CN[C@@H](C2)C1 | 85.2 nM | ≤ 50% | 70.1 nM | – | – | –
O=C(c1ccc(F)o1)N1C[C@H]2CN[C@H](C2)C1 | 6.9 nM | ≤ 50% | 8.5 nM | – | – | –
O=C(c1ccoc1)N1C[C@H]2CN[C@H](C2)C1 | 10.5 nM | ≤ 50% | 10.6 nM | – | – | –
Cc1nocc1C(=O)N1C[C@H]2CN[C@H](C2)C1 | 54.9 nM | ≤ 50% | 56.7 nM | – | – | –
Cc1ncoc1C(=O)N1C[C@H]2CN[C@H](C2)C1 | 4.6 nM | ≤ 50% | 8.9 nM | – | – | –
Cc1cc(C(=O)N2C[C@H]3CN[C@H](C3)C2)no1 | 17.1 nM | ≤ 50% | 14.8 nM | – | – | –
O=C(c1ccno1)N1C[C@H]2CN[C@H](C2)C1 | 11.4 nM | ≤ 50% | 10.2 nM | – | – | –
O=C(c1cccs1)N1C[C@H]2CN[C@H](C2)C1 | 7.2 nM | ≤ 50% | 5.9 nM | – | – | –
O=C(c1cnco1)N1C[C@H]2CN[C@H](C2)C1 | 14 nM | ≤ 50% | 13 nM | – | – | –
O=C(c1ccc(F)o1)N1C[C@@H]2CN[C@@H](C2)C1 | 14.5 nM | ≤ 50% | 9.3 nM | – | – | –
Cc1coc(C(=O)N2C[C@@H]3CN[C@@H](C3)C2)c1 | 51.6 nM | ≤ 50% | 29.4 nM | – | – | –
O=C(c1cc(Cl)co1)N1C[C@@H]2CN[C@@H](C2)C1 | 41.4 nM | ≤ 50% | 31.2 nM | – | – | –
N#Cc1coc(C(=O)N2C[C@@H]3CN[C@@H](C3)C2)c1 | 48.6 nM | ≤ 50% | 23.6 nM | – | – | –
Cc1ncoc1C(=O)N1CCC2NCC2C1 (stereo not drawn) | 792 nM | ≤ 50% | – | – | – | –
Cc1ncoc1C(=O)N1CC2CNCCC21 (stereo not drawn) | 515 nM | ≤ 50% | – | – | – | –
